Data as given in patent publication US8178548B2, “Anti-infective agents and uses thereof” (priority 2007, dated 2012).
Read-outs that look alike come from different tables or passages of the source.

Legend:
[1] = target: T1, HCV polymerase 1B (Δ21 NS5B, HCV Strain 1B BK) (Hepatitis C virus genotype 1b, UniProt P26663); test: biochemical
T1 construct: 20 to 50 nM Δ21 NS5B
Description: (§1) Either two-fold serial dilutions (fractional inhibition assay) or a narrower range of dilutions spanning the IC50 of the inhibitor (tight binding assay) of the inhibitors were incubated with 20 mM Tris-Cl pH 7.4, 2 mM MnCl2, 1 mM dithiothreitol, 1 mM ethylene diamine tetraacetic acid (EDTA), 60 to 125 μM GTP and 20 to 50 nM Δ21 NS5B (HCV Strain 1B (BK, Genbank accession number M58335, or H77, Genbank accession number AF011751)) for 15 min at room temperature. The reaction was initiated by the addition of 20 μM CTP, 20 μM ATP, 1 μM ^3H-UTP (10 mCi/umol), 5 nM template RNA and 0.1 U/μl RNase inhibitor (RNasin, Promega), and allowed to proceed for 2 to 4 h at room temperature. Reaction volume was 50 μl. The reaction was terminated by the addition of 1 volume of 4 mM spermine in 10 mM Tris-Cl pH 8.0, 1 mM EDTA. After incubation for at least 15 min at room temperature, the precipitated RNA was captured by filtering through a GF/B filter (Millipore) in a 96 well format. The filter plate was washed three times with 200 μl each of 2 mM spermine, 10 mM Tris-Cl pH 8.0, 1 mM EDTA, and 2 times with ethanol. After air-drying, 30 μl of Microscint 20 scintillation cocktail (Packard) was added to each well, and the retained cpm were determined by scintillation counting. […] Retained cpm were plotted vs. inhibitor concentration and fit to equation 1 using non-linear regression (ref. 1) to obtain the IC50 values: Retained cpm=A[sqrt{(IC50+It−Et)^2+4*IC50*Et}−(IC50+It−Et)]
(§2) Ref. Morrison, J. F. and S. R. Stone. 1985. Approaches to the study and analysis of the inhibition of enzymes by slow- and tight-binding inhibitors. Comments Mol. Cell. Biophys. 2: 347-368.
(§3) The sequence of the template RNA used was: 5′-[…] […] […] […] […] […] […] […] […] […] […] […] […] […] […] […] […]-3′ (SEQ ID NO:1).

[2] = target: T2, HCV polymerase 1A (Δ21 NS5B, H77) (Hepatitis C virus genotype 1a, UniProt P27958); test: biochemical
T2 construct: 20 to 50 nM Δ21 NS5B
T2 sequence (P27958 2421-2990, stated change not applied): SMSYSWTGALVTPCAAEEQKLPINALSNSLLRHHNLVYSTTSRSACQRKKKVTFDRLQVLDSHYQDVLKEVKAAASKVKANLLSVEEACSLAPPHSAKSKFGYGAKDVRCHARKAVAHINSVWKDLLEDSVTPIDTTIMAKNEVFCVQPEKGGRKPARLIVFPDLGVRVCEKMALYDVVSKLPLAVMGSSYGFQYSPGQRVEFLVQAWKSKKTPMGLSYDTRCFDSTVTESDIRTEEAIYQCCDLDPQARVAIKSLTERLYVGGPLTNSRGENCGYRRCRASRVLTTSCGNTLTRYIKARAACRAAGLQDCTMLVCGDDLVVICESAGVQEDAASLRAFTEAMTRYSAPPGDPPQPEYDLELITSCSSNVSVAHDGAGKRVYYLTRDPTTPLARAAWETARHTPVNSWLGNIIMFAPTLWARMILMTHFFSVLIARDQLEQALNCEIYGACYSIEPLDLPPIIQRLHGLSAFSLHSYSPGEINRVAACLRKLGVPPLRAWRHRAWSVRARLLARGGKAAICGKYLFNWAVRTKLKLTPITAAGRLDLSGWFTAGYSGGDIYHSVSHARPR
Description: as §1, §2, §3

[3] = test system: genotype 1b-Con1 subgenomic replicon cell line; test: HCV Polymerase Replicon Assay, genotype 1b-Con1 (luciferase reporter); format: cell-based; details: Hepatitis C virus, 72 h, read-out: EC50 1b
[4] = test system: genotype 1a-H77 subgenomic replicon cell line; test: HCV Polymerase Replicon Assay, genotype 1a-H77 (luciferase reporter); format: cell-based; details: Hepatitis C virus, 72 h, read-out: EC50 1a
[5] = replicon 1b-Con1, luciferase, three days
[6] = replicon 1a-H77, luciferase, three days

T1 sequence (P26663 2420-2989, stated change not applied): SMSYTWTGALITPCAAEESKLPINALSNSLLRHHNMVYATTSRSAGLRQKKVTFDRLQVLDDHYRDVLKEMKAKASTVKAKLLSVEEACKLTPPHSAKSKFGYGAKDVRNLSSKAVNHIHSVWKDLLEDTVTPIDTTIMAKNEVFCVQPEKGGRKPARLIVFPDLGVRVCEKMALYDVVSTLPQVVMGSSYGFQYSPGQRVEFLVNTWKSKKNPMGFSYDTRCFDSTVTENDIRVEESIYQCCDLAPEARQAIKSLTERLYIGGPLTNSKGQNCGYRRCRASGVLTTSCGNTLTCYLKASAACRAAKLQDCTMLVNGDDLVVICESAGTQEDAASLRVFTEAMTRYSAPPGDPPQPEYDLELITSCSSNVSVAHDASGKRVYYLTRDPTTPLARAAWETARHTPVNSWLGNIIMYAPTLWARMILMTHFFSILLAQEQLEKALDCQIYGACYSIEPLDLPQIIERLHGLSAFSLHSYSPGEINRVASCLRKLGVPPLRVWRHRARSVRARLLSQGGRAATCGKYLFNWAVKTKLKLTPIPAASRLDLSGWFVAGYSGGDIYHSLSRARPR

SMILES | IC50 [1] [µM] | IC50 [2] [µM] | EC50 [3] [µM] | EC50 [4] [µM] | EC50 [3, 5] [µM] | EC50 [4, 6] [µM]
COCCNC(=O)c1cc(NS(C)(=O)=O)ccc1/C=C/c1cc(-n2ccc(=O)[nH]c2=O)cc(C(C)(C)C)c1OC [IB-L1-1.9, 2-{(E)-2-[3-tert-Butyl-5-(2,4-dioxo-3,4-dihydro-2H-pyrimidin-1-yl)-2-methoxy-phenyl]-vinyl}-5-methanesulfonylamino-N-(2-methoxy-ethyl)-benzamide] | 0.01 to 0.1 | < 0.01 | < 0.01 | 0.01 to 0.1 | – | –
COc1c(/C=C/c2ccc(NS(C)(=O)=O)cc2CO)cc(-n2ccc(=O)[nH]c2=O)cc1C(C)(C)C [IB-L1-1.10, (E)-N-(4-(3-tert-butyl-5-(2,4-dioxo-3,4-dihydropyrimidin-1(2H)-yl)-2-methoxystyryl)-3-(hydroxymethyl)phenyl)methanesulfonamide] | 0.01 to 0.1 | < 0.01 | < 0.01 | < 0.01 | – | –
CCOC(=O)c1cc(NS(C)(=O)=O)ccc1/C=C/c1cc(-n2ccc(=O)[nH]c2=O)cc(C(C)(C)C)c1OC [IB-L1-1.11, 2-{(E)-2-[3-tert-Butyl-5-(2,4-dioxo-3,4-dihydro-2H-pyrimidin-1-yl)-2-methoxy-phenyl]-vinyl}-5-methanesulfonylamino-benzoic acid ethyl ester] | 0.01 to 0.1 | < 0.01 | < 0.01 | 0.01 to 0.1 | – | –
CC(C)(C)c1cc(-n2ccc(=O)[nH]c2=O)cc(/C=C/c2ccc(NS(C)(=O)=O)cc2)c1Cl [IB-L1-1.12, N-(4-{(E)-2-[3-tert-Butyl-2-chloro-5-(2,4-dioxo-3,4-dihydro-2H-pyrimidin-1-yl)-phenyl]-vinyl}-phenyl)-methanesulfonamide] | 0.01 to 0.1 | < 0.01 | – | – | 0.01 to 0.1 | 0.01 to 0.1
COCc1cc(NS(C)(=O)=O)ccc1/C=C/c1cc(-n2ccc(=O)[nH]c2=O)cc(C(C)(C)C)c1OC [IB-L1-1.13, (E)-N-(4-(3-tert-butyl-5-(2,4-dioxo-3,4-dihydropyrimidin-1(2H)-yl)-2-methoxystyryl)-3-(methoxymethyl)phenyl)methanesulfonamide] | 0.01 to 0.1 | < 0.01 | < 0.01 | 0.01 to 0.1 | – | –
COc1c(/C=C/c2ccc(NS(C)(=O)=O)cc2C(=O)N(C)C)cc(-n2ccc(=O)[nH]c2=O)cc1C(C)(C)C [IB-L1-1.14, 2-{(E)-2-[3-tert-Butyl-5-(2,4-dioxo-3,4-dihydro-2H-pyrimidin-1-yl)-2-methoxy-phenyl]-vinyl}-5-methanesulfonylamino-N,N-dimethyl-benzamide] | 0.01 to 0.1 | < 0.01 | < 0.01 | 0.01 to 0.1 | – | –
COc1c(/C=C/c2cc(F)c(NS(C)(=O)=O)cc2C)cc(-n2ccc(=O)[nH]c2=O)cc1C(C)(C)C [IB-L1-1.15, (E)-N-(4-(3-tert-butyl-5-(2,4-dioxo-3,4-dihydropyrimidin-1(2H)-yl)-2-methoxystyryl)-2-fluoro-5-methylphenyl)methanesulfonamide] | 0.01 to 0.1 | < 0.01 | < 0.01 | < 0.01 | – | –
COc1c(/C=C/c2ccc(NS(C)(=O)=O)cc2-c2ncc[nH]2)cc(-n2ccc(=O)[nH]c2=O)cc1C(C)(C)C [IB-L1-1.16, (E)-N-(4-(3-tert-butyl-5-(2,4-dioxo-3,4-dihydropyrimidin-1(2H)-yl)-2-methoxystyryl)-3-(1H-imidazol-2-yl)phenyl)methanesulfonamide] | 0.01 to 0.1 | < 0.01 | 0.01 to 0.1 | 0.1 to 1 | – | –
CNC(=O)c1cc(NS(C)(=O)=O)ccc1/C=C/c1cc(-n2ccc(=O)[nH]c2=O)cc(C(C)(C)C)c1OC [IB-L1-1.17, 2-{(E)-2-[3-tert-butyl-5-(2,4-dioxo-3,4-dihydro-2H-pyrimidin-1-yl)-2-methoxy-phenyl]-vinyl}-5-methanesulfonylamino-N-methyl-benzamide] | 0.01 to 0.1 | < 0.01 | < 0.01 | 0.01 to 0.1 | – | –
COc1c(/C=C/c2ccc(NS(C)(=O)=O)cc2C(=O)N(C)C2CCS(=O)(=O)C2)cc(-n2ccc(=O)[nH]c2=O)cc1C(C)(C)C (stereo not drawn) [IB-L1-1.18, 2-{(E)-2-[3-tert-butyl-5-(2,4-dioxo-3,4-dihydro-2H-pyrimidin-1-yl)-2-methoxy-phenyl]-vinyl}-N-(1,1-dioxo-tetrahydro-1lambda*6*-thiophen-3-yl)-5-methanesulfonylamino-N-methyl-benzamide] | 0.01 to 0.1 | < 0.01 | 0.01 to 0.1 | 0.01 to 0.1 | – | –
CO/N=C/c1cc(NS(C)(=O)=O)ccc1/C=C/c1cc(-n2ccc(=O)[nH]c2=O)cc(C(C)(C)C)c1OC [IB-L1-1.19, N-(4-(3-tert-butyl-5-(2,4-dioxo-3,4-dihydropyrimidin-1(2H)-yl)-2-methoxystyryl)-3-((E)-(methoxyimino)methyl)phenyl)methanesulfonamide] | 0.01 to 0.1 | < 0.01 | < 0.01 | 0.01 to 0.1 | – | –
COc1c(/C=C/c2ccc(NS(C)(=O)=O)cc2)cc(-n2cc(Cl)c(=O)[nH]c2=O)cc1C(C)(C)C [IB-L1-1.20, N-(4-{(E)-2-[3-tert-butyl-5-(5-chloro-2,4-dioxo-3,4-dihydro-2H-pyrimidin-1-yl)-2-methoxyphenyl]-vinyl}-phenyl)-methanesulfonamide] | 0.01 to 0.1 | < 0.01 | – | – | < 0.01 | 0.01 to 0.1
COc1c(/C=C/c2ccc(NS(C)(=O)=O)cc2C(N)=O)cc(-n2ccc(=O)[nH]c2=O)cc1C(C)(C)C [IB-L1-1.21, 2-{(E)-2-[3-tert-butyl-5-(2,4-dioxo-3,4-dihydro-2H-pyrimidin-1-yl)-2-methoxy-phenyl]-vinyl}-5-methanesulfonylamino-benzamide] | 0.01 to 0.1 | < 0.01 | < 0.01 | 0.01 to 0.1 | – | –
COc1c(/C=C/c2ccc(NS(C)(=O)=O)cc2C(=O)N2CCC2)cc(-n2ccc(=O)[nH]c2=O)cc1C(C)(C)C [IB-L1-1.22, N-(3-(azetidine-1-carbonyl)-4-{(E)-2-[3-tert-butyl-5-(2,4-dioxo-3,4-dihydro-2H-pyrimidin-1-yl)-2-methoxy-phenyl]-vinyl}-phenyl)-methanesulfonamide] | 0.01 to 0.1 | 0.01 to 0.1 | < 0.01 | 0.01 to 0.1 | – | –
COc1c(/C=C/c2ccc(NS(C)(=O)=O)cc2C(=O)N2CCOCC2)cc(-n2ccc(=O)[nH]c2=O)cc1C(C)(C)C [IB-L1-1.23, (E)-N-(4-(3-tert-butyl-5-(2,4-dioxo-3,4-dihydropyrimidin-1(2H)-yl)-2-methoxystyryl)-3-(morpholine-4-carbonyl)phenyl)methanesulfonamide] | 0.01 to 0.1 | 0.01 to 0.1 | < 0.01 | 0.1 to 1 | – | –
COCCN(C)C(=O)c1cc(NS(C)(=O)=O)ccc1/C=C/c1cc(-n2ccc(=O)[nH]c2=O)cc(C(C)(C)C)c1OC [IB-L1-1.24, 2-{(E)-2-[3-tert-butyl-5-(2,4-dioxo-3,4-dihydro-2H-pyrimidin-1-yl)-2-methoxy-phenyl]-vinyl}-5-methanesulfonylamino-N-(2-methoxy-ethyl)-N-methyl-benzamide] | 0.01 to 0.1 | 0.01 to 0.1 | < 0.01 | 0.01 to 0.1 | – | –
COc1c(/C=C/c2ccc(NS(C)(=O)=O)cc2COC(C)C)cc(-n2ccc(=O)[nH]c2=O)cc1C(C)(C)C [IB-L1-1.25, N-(4-{(E)-2-[3-tert-butyl-5-(2,4-dioxo-3,4-dihydro-2H-pyrimidin-1-yl)-2-methoxy-phenyl]-vinyl}-3-isopropoxymethyl-phenyl)-methanesulfonamide] | 0.01 to 0.1 | 0.01 to 0.1 | < 0.01 | 0.01 to 0.1 | – | –
COc1c(/C=C/c2ccc(NS(C)(=O)=O)cc2-c2ncco2)cc(-n2ccc(=O)[nH]c2=O)cc1C(C)(C)C [IB-L1-1.26, (E)-N-(4-(3-tert-butyl-5-(2,4-dioxo-3,4-dihydropyrimidin-1(2H)-yl)-2-methoxystyryl)-3-(oxazol-2-yl)phenyl)methanesulfonamide] | 0.01 to 0.1 | 0.01 to 0.1 | < 0.01 | 0.01 to 0.1 | – | –
